We go through 2 compounds from BindingDB's records for doi:10.1021/jm00053a012 (Washington University, 1993).

In the experiment the target is calcium-independent phospholipase A2 (Canis familiaris). In words: Compounds were evaluated for the inhibitory activity against canine myocardial cytosolic calcium-independent phospholipase A2.

Molecules are shown by their SMILES.

For the compound `O=C1O/C(=C/I)CCC1c1cccc2ccccc12` (configuration not stated) [(E)-6-Iodomethylene-3-naphthalen-1-yl-tetrahydro-pyran-2-one], the IC50 – broadly, the concentration needed to halve the response being measured – amounted to 30 nM.

Regarding `O=C1O/C(=C\I)CCC1c1cccc2ccccc12` (configuration not stated) [(Z)-6-(iodomethylene)-3-(naphthalen-1-yl)tetrahydro-2H-pyran-2-one], the IC50 worked out at 190 nM.
